Entries after “also recorded” stand apart in the source; their conditions may differ.
Key:
Assay type in all cases: in vivo
[1] = test system: tested plant; assay: Hydraulic enhancement test of plant growth regulators (gibberellins, cytokinins); conditions: for hydraulic enhancement by gibberellins: FIG. 16
Experimental: Specific combinations of plant growth regulators (PGRs) were used for hydraulic enhancement and increased harvest yield of crops. PGRs were tested to be co-applied with strigolactones and/or AB compounds (e.g., AB01). PGRs were also tested in the absence of strigolactones and/or AB compounds. […] PGRs were tested as a seed treatment, soil drench, granule formulation, or foliar spray. […] In another experiment, the effect of hydraulic enhancement was also tested with cytokinins, including kinetin, zeatin, 6-benzylaminopurine (6-BAP), diphenylurea, thidiazuron, and their chemical derivatives and analogs.

[2] = test system: plant; assay: Hydraulic enhancement test of ABA biosynthesis inhibitor fluridone; conditions: fluridone 1 μg (FIG. 15)
Experimental: Using this discovery, it could be reasoned that addition of inhibitors of ABA biosynthesis would result in increased hydraulic enhancement. In another experiment, fluridone was tested for its effect in hydraulic enhancement. Fluridone is an inhibitor of the phytoene destaturase, which is an upstream step in the synthesis of abscisic acid.

[3] = test system: corn (Zea mays) seedlings; assay: ex vivo hydraulic enhancement (xVHS) transpiration assay
Experimental: In this assay with corn (Zea mays), seedlings were grown in defined potting soil (in this case, Sunshine Mix #4) for 2 weeks until they were approximately 15 to 20 centimeters tall. Seedlings were then cut at the base of the stem and placed in individual tubes with defined volume of water (FIG. 4A). Hydraulic enhancing chemistry (for example, AB01) was present in the defined volume of water at various concentrations. Excised seedlings were placed in a defined temperature and humidity environment under continuous illumination, and water use was measured after 12, 18, or 24 hours. Using this assay, chemistry or other inputs that induce hydraulic enhancement can be tested and discovered. In this assay, 100 ng of AB01 in acetone was added to 2 week old corn seedlings and water use was monitored over 24 hours.

Row | Compound | hydraulic enhancement by gibberellins [1] | also measured
1 | C=C1C[C@@]23CC[C@@H]4C(C)(C)CCC[C@@]4(C)[C@@H]2CC[C@@H]1C3 [ent-kaurene] | hydraulic enhancement was elicited | –
2 | C=C1C[C@]23C[C@H]1CC[C@H]2[C@@]12CC[C@H](O)[C@@](C)(C(=O)O1)[C@H]2[C@@H]3C(=O)O [GA4] | hydraulic enhancement was elicited | –
3 | C=C1C[C@]23C[C@@]1(O)CC[C@H]2[C@@]12C=C[C@H](O)[C@@](C)(C(=O)O1)[C@H]2[C@@H]3C(=O)O [GA3] | hydraulic enhancement was elicited | –
4 | c1ccc(CNc2ncnc3nc[nH]c23)cc1 [6-BAP, 6-benzylaminopurine] | – | hydraulic enhancement by cytokinin ([1]; 1 μg (FIG. 17)): improved hydraulic enhancement; also recorded: elicit hydraulic enhancement
5 | fluridone | – | effect on hydraulic enhancement [2]: improved hydraulic enhancement; also recorded: increase hydraulic enhancement
6 | CC1CC23CC1CCC2C1(C)CCCC(C)(C)C1C3C (stereo not drawn) [ent-gibberellane] | hydraulic enhancement was elicited | –
7 | C=C1C[C@]23C[C@@]1(O)CC[C@H]2[C@@]12CC[C@H](O)[C@@](C)(C(=O)O1)[C@H]2[C@@H]3C(=O)O [GA1] | hydraulic enhancement was elicited | –
8 | C=C1C[C@]23C[C@@]1(O)CC[C@H]2[C@@]12C=C[C@H](O)[C@@](C)(C(=O)O1)[C@H]2[C@@H]3C(=O)O [gibberellic acid] | improved hydraulic enhancement | –
9 | CC1=CC(Oc2c(C)occc2=O)OC1=O (stereo not drawn) [AB09, 2-methyl-3-((4-methyl-5-oxo-2,5-dihydrofuran-2-yl)oxy)-4H-pyran-4-one] | – | increase in transpiration ([3]; 10Ong added to the xVHS assay (FIG. 12)): 40%; ability to induce hydraulic enhancement ([3]; screen of AB compounds/strigolactones (FIG. 12)): able to induce hydraulic enhancement; also recorded: resulted in hydraulic enhancement of crop plants
10 | C=C1C[C@]23C[C@H]1CC[C@H]2[C@@]12C=C[C@H](O)[C@@](C)(C(=O)O1)[C@H]2[C@@H]3C(=O)O [GA7] | hydraulic enhancement was elicited | –
11 | CC1=CC(=O)CC(C)(C)[C@@]1(O)/C=C/C(C)=C\C(=O)O [abscisic acid] | – | effect on hydraulic enhancement in the xVHS assay ([3]; addition of abscisic acid (FIG. 14)): inhibited hydraulic enhancement; also recorded: reduce the hydraulic enhancement
